# Results as given in publication PMC7534336, “New classes of potent heparanase inhibitors from ligand-based virtual screening” (Journal of Enzyme Inhibition and Medicinal Chemistry, 2020).
# Where “and” joins values, the source holds several entries; their conditions need not be identical. Equal values may be shown once. Read-outs that look alike come from different tables or passages of the source.
# Target: human GS3 heparanase (Homo sapiens, UniProt Q9Y251)
# Experiment: fondaparinux assay of heparanase enzymatic activity (WST-1 colorimetric)
# Type: biochemical
# Conditions: for % inhib @25 M ± SD: fixed concentration 25 µM (25 M [sic]); for % inhib @2.5 M ± SD: fixed concentration 2.5 µM (2.5 M [sic])
# Description: To determine the activity of the heparanase inhibitors, a homogeneous assay based on the cleavage of the synthetic heparin oligosaccharide fondaparinux (Arixtra; Aspen) was used. The assay measures colorimetrically the appearance of the disaccharide product of heparanase-catalysed fondaparinux cleavage using the tetrazolium salt WST-1. The assay was essentially performed as described[39] with minor modifications. Briefly, Nunc 96-well (Thermo Fisher Scientific) plates were pre-treated with a solution of 4% BSA (bovine serum albumin, Sigma-Aldrich) in phosphate-buffered saline containing 0.05% Tween 20 (PBST), for 2 h at 37 °C, and then washed three times with PBST. […] The IC50 value for each compound was calculated by GraphPad software. Finally, the measurements were corrected by subtracting both the reagent background and the inner absorbance value of test compound.
# Supporting Table S1 reports the structures of the fifty-five compounds purchased and tested, with information, for each compound, on the database from which it was retrieved, the reference inhibitor used to retrieve it and the similarity value with the reference inhibitor.
# [1] = fondaparinux assay on human GS3 heparanase, mean of triplicates, read-out: IC50 (µM) ± SD, heparanase inhibitory activity
# [2] = Table S1, fondaparinux assay on GS3 heparanase, read-out: IC50 (M) ± SD
# [3] = fondaparinux assay on human GS3 heparanase, mean of triplicates
# Sequence of human GS3 heparanase (Q9Y251 other isoform, or with tags, fused parts or gaps): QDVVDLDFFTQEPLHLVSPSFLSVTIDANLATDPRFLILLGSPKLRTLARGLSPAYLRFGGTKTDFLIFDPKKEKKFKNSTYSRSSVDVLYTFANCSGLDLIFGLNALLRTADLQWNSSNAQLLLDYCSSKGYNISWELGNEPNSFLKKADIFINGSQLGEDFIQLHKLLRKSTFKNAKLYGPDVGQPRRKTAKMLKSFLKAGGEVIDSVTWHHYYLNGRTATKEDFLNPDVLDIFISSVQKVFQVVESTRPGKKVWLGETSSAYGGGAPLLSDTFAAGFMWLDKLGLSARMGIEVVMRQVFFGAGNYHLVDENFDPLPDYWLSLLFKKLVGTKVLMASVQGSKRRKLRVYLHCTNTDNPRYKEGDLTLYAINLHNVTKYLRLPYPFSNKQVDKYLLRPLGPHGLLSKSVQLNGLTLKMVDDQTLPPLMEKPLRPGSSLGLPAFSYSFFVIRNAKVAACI
SMILES,% inhib @25 M ± SD (Table S1),% inhib @2.5 M ± SD (Table S1),other results
O=C(O)c1ccc2c(c1)C(=O)N(NC(=O)c1ccc(Oc3ccc(C(=O)NN4C(=O)c5ccc(C(=O)O)cc5C4=O)cc3)cc1)C2=O [Compound 25],Not active,,
O=C(O)/C=C/C(=O)Nc1ccc(Sc2ccc(Oc3ccc(Sc4ccc(NC(=O)/C=C/C(=O)O)cc4)cc3)cc2)cc1 [Compound 35],,,IC50 [1]: 0.52 ± 0.02 µM
O=C(Nc1ccc(O)cc1C(=O)O)c1ccc(S(=O)(=O)c2ccc(C(=O)Nc3ccc(O)cc3C(=O)O)cc2)cc1 [Compound 53],,,"IC50 [2]: 5.29 ± 0.84 µM; IC50 (µM) ± SD, heparanase inhibitory activity [3]: good inhibitory potencies"
O=C(O)COc1ccc(N2C(=O)c3ccc(Oc4ccc5c(c4)C(=O)N(c4ccc(OCC(=O)O)cc4)C5=O)cc3C2=O)cc1 [Compound 37],,,IC50 [2]: > 5 µM
O=C(Nc1cccc(C(=O)c2ccccc2)c1)c1ccc(Oc2ccc(C(=O)Nc3cccc(C(=O)c4ccccc4)c3)cc2)cc1 [Compound 40],,,IC50 [2]: > 5 µM
O=C(Nc1ccccc1Oc1ccc(C(=O)O)c(C(=O)O)c1)c1ccc(Oc2ccc(C(=O)Nc3ccccc3Oc3ccc(C(=O)O)c(C(=O)O)c3)cc2)cc1 [Compound 22],60 ±1%,21 ± 1%,
O=C(O)CCC(=O)Nc1ccc(Oc2ccc(S(=O)(=O)c3ccc(Oc4ccc(NC(=O)CCC(=O)O)cc4)cc3)cc2)cc1 [Compound 56],51 ± 5%,20 ± 5%,
O=C(Nc1cccc(C(=O)Nc2cc(C(=O)Nc3ccc(S(=O)(=O)O)c4cc(S(=O)(=O)O)cc(S(=O)(=O)O)c34)ccc2F)c1)Nc1cccc(C(=O)Nc2cc(C(=O)Nc3ccc(S(=O)(=O)O)c4cc(S(=O)(=O)O)cc(S(=O)(=O)O)c34)ccc2F)c1 [Compound 10],100 ± 1%,39 ± 3%,
O=C(Nc1nc(-c2ccc(F)cc2)cs1)c1ccc(Oc2ccc(C(=O)Nc3nc(-c4ccc(F)cc4)cs3)cc2)cc1 [Compound 43],67 ± 4%,44 ± 1%,
O=C(O)c1ccc2c(c1)C(=O)N(c1cccc(Oc3cccc(Oc4cccc(N5C(=O)c6ccc(C(=O)O)cc6C5=O)c4)c3)c1)C2=O [Compound 59],,,"IC50 (µM) ± SD, heparanase inhibitory activity [3]: good inhibitory potency; IC50 [1]: 2.08 ± 0.16 µM"
O=C(Nc1ccc(Sc2ccc(Oc3ccc(Sc4ccc(NC(=O)c5cccc(F)c5)cc4)cc3)cc2)cc1)c1cccc(F)c1 [Compound 47],66 ± 5%,30 ± 3%,
CC(C)(c1ccc(Oc2ccc3c(c2)C(=O)N(c2cccc(C(=O)O)c2)C3=O)cc1)c1ccc(Oc2ccc3c(c2)C(=O)N(c2cccc(C(=O)O)c2)C3=O)cc1 [Compound 48],,,"IC50 (µM) ± SD, heparanase inhibitory activity [3]: significant inhibitory potencies; IC50 [1]: 0.91 ± 0.1 µM"
O=C(Nc1ccc2c(O)c(N=Nc3ccccc3)c(S(=O)(=O)O)cc2c1)Nc1ccc2c(O)c(N=Nc3ccccc3)c(S(=O)(=O)O)cc2c1 [Compound 18],11 ± 3%,12 ± 3%,
O=C(O)c1cc(NC(=O)c2ccc(Oc3ccc(C(=O)Nc4cc(C(=O)O)cc(C(=O)O)c4)cc3)cc2)cc(C(=O)O)c1 [Compound 50],,,"IC50 (µM) ± SD, heparanase inhibitory activity [3]: good inhibitory potencies; IC50 [1]: 2.01 ± 0.13 µM"
O=C(O)c1ccc(Oc2ccc3c(c2)C(=O)N(c2ccc(Oc4ccc(N5C(=O)c6ccc(Oc7ccc(C(=O)O)cc7)cc6C5=O)cc4)cc2)C3=O)cc1 [Compound 34],,,IC50 [1]: 3.15 ± 0.28 µM
O=C(Nc1ccc(O)cc1C(=O)O)c1ccc(Oc2ccc(C(=O)Nc3ccc(O)cc3C(=O)O)cc2)cc1 [Compound 51],77 ± 4%,42 ± 6%,
O=C(Nc1ccccc1C(=O)O)c1ccc2c(c1)C(=O)N(c1ccc(Oc3ccc(N4C(=O)c5ccc(C(=O)Nc6ccccc6C(=O)O)cc5C4=O)cc3)cc1)C2=O [Compound 23],96 ± 3%,,
O=C(Nc1nc(-c2ccc3ccccc3c2)cs1)c1ccc(Oc2ccc(C(=O)Nc3nc(-c4ccc5ccccc5c4)cs3)cc2)cc1 [Compound 41],76 ± 2%,54 ± 6%,
O=C(O)c1ccc(N2C(=O)c3ccc(Oc4cccc(Oc5ccc6c(c5)C(=O)N(c5ccc(C(=O)O)cc5)C6=O)c4)cc3C2=O)cc1 [Compound 60],65 ± 4%,53 ± 12%,
Cc1c(NS(=O)(=O)c2cc(C(=O)Nc3ccc(-c4nc5ccccc5[nH]4)cc3)ccc2Cl)c(=O)n(-c2ccccc2)n1C [Compound 28],59 ± 5%,14 ± 6%,
O=C(O)c1ccc(NC(=O)c2ccc(S(=O)(=O)c3ccc(C(=O)Nc4ccc(C(=O)O)cc4)cc3)cc2)cc1 [Compound 55],43 ± 7%,30 ± 4%,

SMILES,% inhib @25 M ± SD (Table S1),% inhib @2.5 M ± SD (Table S1),other results
COc1cc(C(=O)Nc2ccc(-c3nc4cc(NC(=O)c5cc(OC)c(OC)c(OC)c5)ccc4[nH]3)cc2)cc(OC)c1OC [Compound 30],1 ± 1%,11 ± 4%,
O=C(O)c1ccc(Oc2cccc(N3C(=O)c4ccc(Oc5ccc6c(c5)C(=O)N(c5cccc(Oc7ccc(C(=O)O)c(C(=O)O)c7)c5)C6=O)cc4C3=O)c2)cc1C(=O)O [Compound 36],,,IC50 [1]: 0.63 ± 0.01 µM
O=C(Nc1ccc(Oc2ccc(NC(=O)c3ccc4c(c3)C(=O)N(c3nccs3)C4=O)cc2)cc1)c1ccc2c(c1)C(=O)N(c1nccs1)C2=O [Compound 44],60 ± 5%,62 ± 2%,
O=C(O)c1cc(NC(=O)c2ccc(S(=O)(=O)c3ccc(C(=O)Nc4cc(C(=O)O)cc(C(=O)O)c4)cc3)cc2)cc(C(=O)O)c1 [Compound 52],54 ± 8%,45 ± 7%,
O=C(O)c1cc(C(=O)O)cc(N2C(=O)c3ccc(C(=O)c4ccc5c(c4)C(=O)N(c4cc(C(=O)O)cc(C(=O)O)c4)C5=O)cc3C2=O)c1 [Compound 26],99 ± 6%,35 ± 1%,
O=C(Nc1cccc(Oc2ccc(S(=O)(=O)c3ccc(Oc4cccc(NC(=O)c5ccc(F)cc5)c4)cc3)cc2)c1)c1ccc(F)cc1 [Compound 46],,,IC50 [2]: > 5 µM
O=C(Nc1ccc(-c2nc3ccccc3o2)cc1)c1ccc(Oc2ccc(C(=O)Nc3ccc(-c4nc5ccccc5o4)cc3)cc2)cc1 [Compound 39],63 ± 16%,60 ± 21%,
CC(C)(c1ccc(Oc2ccc3c(c2)C(=O)N(c2ccc(C(=O)O)cc2)C3=O)cc1)c1ccc(Oc2ccc3c(c2)C(=O)N(c2ccc(C(=O)O)cc2)C3=O)cc1 [Compound 49],,,"IC50 (µM) ± SD, heparanase inhibitory activity [3]: significant inhibitory potencies; IC50 [1]: 2.35 ± 0.23 µM"
Nc1ccc2cc(S(=O)(=O)O)cc(O)c2c1N=Nc1ccc(NC(=O)Nc2ccc(N=Nc3c(N)ccc4cc(S(=O)(=O)O)cc(O)c34)c(S(=O)(=O)O)c2)cc1S(=O)(=O)O [Compound 20],,,IC50 [1]: 1.76 ± 0.23 µM
COc1cc(N=Nc2cccc(S(=O)(=O)O)c2)ccc1NC(=O)Nc1ccc(N=Nc2ccc(O)c(C(=O)O)c2)cc1 [Compound 17],95 ± 1%,14 ± 2%,
O=C(CSc1nc2ccccc2[nH]1)Nc1ccc(-c2nc3cc(NC(=O)CSc4nc5ccccc5[nH]4)ccc3o2)cc1 [Compound 33],58 ± 1%,36 ± 5%,
O=C(O)c1ccc(Oc2ccc3c(c2)C(=O)N(c2ccc(S(=O)(=O)c4ccc(N5C(=O)c6ccc(Oc7ccc(C(=O)O)cc7)cc6C5=O)cc4)cc2)C3=O)cc1 [Compound 27],70 ± 6%,Not active,
O=C(Nc1ccc(Br)cc1C(=O)O)c1ccc(Oc2ccc(C(=O)Nc3ccc(Br)cc3C(=O)O)cc2)cc1 [Compound 21],,,IC50 [1]: 2.66 ± 0.32 µM
O=C(Nc1c[nH]c(=O)[nH]c1=O)c1ccc2c(c1)C(=O)N(c1ccc(Oc3ccc(N4C(=O)c5ccc(C(=O)Nc6c[nH]c(=O)[nH]c6=O)cc5C4=O)cc3)cc1)C2=O [Compound 45],67 ± 4%,41 ± 3%,
O=C(O)c1ccccc1N1C(=O)c2ccc(Oc3ccc(Oc4ccc5c(c4)C(=O)N(c4ccccc4C(=O)O)C5=O)cc3)cc2C1=O [Compound 58],,,IC50 [1]: < 5 µM and 3.78 µM
O=C(O)c1cccc(NC(=O)c2ccc(S(=O)(=O)c3ccc(C(=O)Nc4cccc(C(=O)O)c4)cc3)cc2)c1 [Compound 54],72 ± 1%,22 ± 7%,
O=C(Nc1cccc(C(=O)Nc2ccc(S(=O)(=O)O)c3cc(S(=O)(=O)O)cc(S(=O)(=O)O)c23)c1)Nc1cccc(C(=O)Nc2ccc(S(=O)(=O)O)c3cc(S(=O)(=O)O)cc(S(=O)(=O)O)c23)c1 [Compound 9],Not active,,
O=C(Nc1ccccc1C(=O)O)c1ccc2c(c1)C(=O)N(c1ccc(S(=O)(=O)c3ccc(N4C(=O)c5ccc(C(=O)Nc6ccccc6C(=O)O)cc5C4=O)cc3)cc1)C2=O [Compound 24],,,IC50 [1]: 1.1 ± 0.13 µM
O=C(Nc1ccc2c(O)c(N=Nc3ccc(N=Nc4ccc(S(=O)(=O)O)cc4)cc3S(=O)(=O)O)c(S(=O)(=O)O)cc2c1)Nc1ccc2c(O)c(N=Nc3ccc(N=Nc4ccc(S(=O)(=O)O)cc4)cc3S(=O)(=O)O)c(S(=O)(=O)O)cc2c1 [Compound 15],,,IC50 [1]: 0.93 ± 0.07 µM
O=C(Nc1cccc(-c2nc3ccccc3s2)c1)c1ccc(Oc2ccc(C(=O)Nc3cccc(-c4nc5ccccc5s4)c3)cc2)cc1 [Compound 38],,,IC50 [2]: 5.75 ± 0.05 µM
